Data on 18 molecules can be found in US20250255848A1, “SUBSTITUTED 6,7-DIHYDRO-5H-BENZO[7]ANNULENE DERIVATIVES, PROCESSES FOR THEIR PREPARATION AND THERAPEUTIC USES THEREOF” (SANOFI, priority 2022, published 2025).

Structures are written as SMILES.

The assay concerns the target ERα (Homo sapiens (Human), UniProt P03372). Put plainly: Estrogen receptor degradation activity: breast cancer cell ERα in cell western assay. Type of assay: cell-based. To be noted: MCF7 cells; for % Degradation At 0.3 μM: 4 hours, normalised to fulvestrant 0.1 μM and DMSO; for IC50 / DC50: 4 hours post compound addition, concentration which degrades 50% of the estrogen receptor; for DC50: read-out: Degradation IC50. The method in brief: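 MCF7 cells in phenol-red-free medium with 5% charcoal-stripped FBS, treated 4 h with 9-point 1:5 dilutions (0.3-0.0000018 μM final). ERα measured by in-cell western (anti-ER antibody, Alexa 488), normalized to Syto-64 DNA stain; % decrease scaled DMSO to 0.1 μM fulvestrant, IC50 in nM.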

Sequence of ERα (P03372 whole entry): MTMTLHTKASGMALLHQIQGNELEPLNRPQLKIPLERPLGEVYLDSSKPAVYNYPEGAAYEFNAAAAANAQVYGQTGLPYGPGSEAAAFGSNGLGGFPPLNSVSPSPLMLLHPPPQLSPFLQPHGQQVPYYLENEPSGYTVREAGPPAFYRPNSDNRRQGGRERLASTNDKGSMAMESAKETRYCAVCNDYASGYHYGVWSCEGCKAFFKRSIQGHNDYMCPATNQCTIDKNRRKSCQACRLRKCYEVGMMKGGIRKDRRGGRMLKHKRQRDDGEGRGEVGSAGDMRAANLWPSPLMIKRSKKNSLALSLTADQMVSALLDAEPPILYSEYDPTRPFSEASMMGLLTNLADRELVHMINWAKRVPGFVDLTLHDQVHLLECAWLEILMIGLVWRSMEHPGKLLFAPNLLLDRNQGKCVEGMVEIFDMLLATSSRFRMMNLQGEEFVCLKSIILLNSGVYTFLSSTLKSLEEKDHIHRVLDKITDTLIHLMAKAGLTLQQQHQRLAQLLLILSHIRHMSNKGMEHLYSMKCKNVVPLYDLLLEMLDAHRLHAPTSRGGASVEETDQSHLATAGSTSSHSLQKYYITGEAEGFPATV

Turning to `Cc1cc(C2=C(c3ccc(C=C4CN(CCCF)C4)cc3)c3ccc(C(=O)O)cc3CCC2)ccc1C(F)(F)F` [Compound 53, 9-(4-((1-(3-fluoropropyl)azetidin-3-ylidene)methyl)phenyl)-8-(3-methyl-4-(trifluoromethyl)phenyl)-6,7-dihydro-5H-benzo[7]annulene-3-carboxylic acid], the “% Degradation At 0.3 μM” value amounted to 91% and it took 1.2 nM to reach half-maximal inhibition (IC50).
Taken in the same sequence, the figures for `COc1cc(C2=C(c3ccc(C=C4CN(CCCF)C4)cc3)c3ccc(C(=O)O)cc3CCC2)ccc1C(F)(F)F` [Compound 50, 9-(4-((1-(3-fluoropropyl)azetidin-3-ylidene)methyl)phenyl)-8-(3-methoxy-4-(trifluoromethyl)phenyl)-6,7-dihydro-5H-benzo[7]annulene-3-carboxylic acid] were 92% and 8.5 nM.
For `COc1cccc(C2=C(c3ccc(C=C4CN(CCCF)C4)cc3)c3ccc(C(=O)O)cc3CCC2)c1C` [Compound 41, 9-(4-((1-(3-fluoropropyl)azetidin-3-ylidene)methyl)phenyl)-8-(3-methoxy-2-methylphenyl)-6,7-dihydro-5H-benzo[7]annulene-3-carboxylic acid], in that order: 91% and 0.7 nM.
Regarding `COc1cccc(C2=C(c3ccc(C=C4CN(CCCF)C4)cc3)c3ccc(C(=O)O)cc3CCC2)c1C(F)F` [Compound 60, 8-(2-(difluoromethyl)-3-methoxyphenyl)-9-(4-((1-(3-fluoropropyl)azetidin-3-ylidene)methyl)phenyl)-6,7-dihydro-5H-benzo[7]annulene-3-carboxylic acid], the “% Degradation At 0.3 μM” value is given as 93% and the midpoint of inhibition, the IC50, lay at 0.6 nM.
For the molecule `O=C(O)c1ccc2c(c1)CCCC(c1ccc(Cl)cc1Cl)=C2c1ccc(C=C2CN(CC(F)CF)C2)cc1` (single isomer, unassigned) [Compound 70, 8-(2,4-dichlorophenyl)-9-(4-((1-(2,3-difluoropropyl)azetidin-3-ylidene)methyl)phenyl)-6,7-dihydro-5H-benzo[7]annulene-3-carboxylic acid], the “% Degradation At 0.3 μM” value is recorded as 81% and the DC50 came out at 1.8 nM.
For `O=C(O)c1ccc2c(c1)CCCC(C1CC13CCC3)=C2c1ccc(C=C2CN(CCCF)C2)cc1` (single isomer, unassigned) [Compound 35, 9-(4-((1-(3-fluoropropyl)azetidin-3-ylidene)methyl)phenyl)-8-(spiro[2.3]hexan-1-yl)-6,7-dihydro-5H-benzo[7]annulene-3-carboxylic acid], in that order: 91% and 0.3 nM.
As to `CC1(C)CCC(C2=C(c3ncc(C=C4CN(CCCF)C4)cc3F)c3ccc(C(=O)O)cc3CCC2)CC1` [Compound 65, 8-(4,4-dimethylcyclohexyl)-9-(3-fluoro-5-((1-(3-fluoropropyl)azetidin-3-ylidene)methyl)pyridin-2-yl)-6,7-dihydro-5H-benzo[7]annulene-3-carboxylic acid], the “% Degradation At 0.3 μM” value came out at 91% and the IC50 (in general, the concentration that gives 50% inhibition) was found to be 0.8 nM.
For `COc1cc(C)c(C2=C(c3ccc(C=C4CN(CCCF)C4)cc3)c3ccc(C(=O)O)cc3CCC2)c(C)c1` [Compound 18, 9-(4-((1-(3-fluoropropyl)azetidin-3-ylidene)methyl)phenyl)-8-(4-methoxy-2,6-dimethylphenyl)-6,7-dihydro-5H-benzo[7]annulene-3-carboxylic acid], in that order: 91% and 0.6 nM.
`COc1c(C2=C(c3ccc(C=C4CN(CCCF)C4)cc3)c3ccc(C(=O)O)cc3CCC2)cccc1C(F)(F)F` [Compound 63, 9-(4-((1-(3-fluoropropyl)azetidin-3-ylidene)methyl)phenyl)-8-(2-methoxy-3-(trifluoromethyl)phenyl)-6,7-dihydro-5H-benzo[7]annulene-3-carboxylic acid]: the “% Degradation At 0.3 μM” value turned out to be 94% and the IC50 was found to be 1 nM.
For `O=C(O)c1ccc2c(c1)CCCC(c1ccc(C(F)F)cc1OC(F)(F)F)=C2c1ccc(C=C2CN(CCCF)C2)cc1` [Compound 54, 8-(4-(difluoromethyl)-2-(trifluoromethoxy)phenyl)-9-(4-((1-(3-fluoropropyl)azetidin-3-ylidene)methyl)phenyl)-6,7-dihydro-5H-benzo[7]annulene-3-carboxylic acid], in that order: 95% and 0.5 nM.
Taken in the same sequence, the figures for `O=C(O)c1ccc2c(c1)CCCC(c1ccc(C(F)(F)F)cc1C1CC1)=C2c1ccc(C=C2CN(CCCF)C2)cc1` [Compound 48, 8-(2-cyclopropyl-4-(trifluoromethyl)phenyl)-9-(4-((1-(3-fluoropropyl)azetidin-3-ylidene)methyl)phenyl)-6,7-dihydro-5H-benzo[7]annulene-3-carboxylic acid] were 94% and 0.9 nM.
As for `O=C(O)c1ccc2c(c1)CCCC(c1cccc(F)c1CF)=C2c1ccc(C=C2CN(CCCF)C2)cc1` [Compound 38, 8-(3-fluoro-2-(fluoromethyl)phenyl)-9-(4-((1-(3-fluoropropyl)azetidin-3-ylidene)methyl)phenyl)-6,7-dihydro-5H-benzo[7]annulene-3-carboxylic acid], the “% Degradation At 0.3 μM” value is given as 90% and the IC50 amounted to 0.4 nM.
Taken in the same sequence, the figures for `O=C(O)c1ccc2c(c1)CCCC(c1ccc(C(F)F)cc1C(F)(F)F)=C2c1ccc(C=C2CN(CCCF)C2)cc1` [Compound 51, 8-(4-(difluoromethyl)-2-(trifluoromethyl)phenyl)-9-(4-((1-(3-fluoropropyl)azetidin-3-ylidene)methyl)phenyl)-6,7-dihydro-5H-benzo[7]annulene-3-carboxylic acid] were 92% and 0.5 nM.
Regarding `O=C(O)c1ccc2c(c1)CCCC(c1cccc(Cl)c1OC(F)(F)F)=C2c1ccc(C=C2CN(CCCF)C2)cc1` [Compound 34, 8-(3-chloro-2-(trifluoromethoxy)phenyl)-9-(4-((1-(3-fluoropropyl)azetidin-3-ylidene)methyl)phenyl)-6,7-dihydro-5H-benzo[7]annulene-3-carboxylic acid], the “% Degradation At 0.3 μM” value came to 94% and the IC50 was determined as 0.7 nM.
Turning to `COc1c(F)cccc1C1=C(c2ccc(C=C3CN(CCCF)C3)cc2)c2ccc(C(=O)O)cc2CCC1` [Compound 40, 8-(3-fluoro-2-methoxyphenyl)-9-(4-((1-(3-fluoropropyl)azetidin-3-ylidene)methyl)phenyl)-6,7-dihydro-5H-benzo[7]annulene-3-carboxylic acid], the “% Degradation At 0.3 μM” value amounted to 91% and the IC50 came out at 0.5 nM.
Taken in the same sequence, the figures for `O=C(O)c1ccc2c(c1)CCCC(c1cccc(F)c1OC(F)F)=C2c1ccc(C=C2CN(CCCF)C2)cc1` [Compound 33, 8-(2-(difluoromethoxy)-3-fluorophenyl)-9-(4-((1-(3-fluoropropyl)azetidin-3-ylidene)methyl)phenyl)-6,7-dihydro-5H-benzo[7]annulene-3-carboxylic acid] were 91% and 0.3 nM.
`Cc1ccc(F)c(C)c1C1=C(c2ccc(C=C3CN(CCCF)C3)cc2)c2ccc(C(=O)O)cc2CCC1` [Compound 75, 8-(3-fluoro-2,6-dimethylphenyl)-9-(4-((1-(3-fluoropropyl)azetidin-3-ylidene)methyl)phenyl)-6,7-dihydro-5H-benzo[7]annulene-3-carboxylic acid]: the “% Degradation At 0.3 μM” value is 95% and half-maximal inhibition (IC50) was put at 0.2 nM.
Taken in the same sequence, the figures for `COc1ccc(C(F)F)c(C2=C(c3ccc(C=C4CN(CCCF)C4)cc3)c3ccc(C(=O)O)cc3CCC2)c1` [Compound 45, 8-(2-(difluoromethyl)-5-methoxyphenyl)-9-(4-((1-(3-fluoropropyl)azetidin-3-ylidene)methyl)phenyl)-6,7-dihydro-5H-benzo[7]annulene-3-carboxylic acid] were 93% and 0.6 nM.
